Laboratory results: patent publication US8227203B2, “Method for testing or screening protein synthesis inhibitors” (The Trustees of the University of Pennsylvania, priority 2007, dated 2012)

What was measured:
HeLa PV cells = experiment: SMN sub-cellular localization by indirect immunofluorescence (anti-SMN 2B1); format: cell-based; settings: for redistribution of SMN from the cytoplasm to the nucleus (nuclear accumulation of SMN): HeLa cells, short treatment (2-6 hours), immunofluorescence; for nuclear translocation of SMN at longer times: longer times (>24 hr), FIG. 5a; for completeness of SMN nuclear accumulation compared with CHX: ER stress inducers, FIG. 6B
Experimental: (§1) HeLa PV were cultured in Dulbecco's modified Eagle's medium (Invitrogen) supplemented with 10% fetal bovine serum (Invitrogen). For screening, cells were seeded onto 384-well plates or, for specific experiments, on glass coverslips the day before treatment. Compounds were added directly into the culture medium to the indicated concentration and the cells were then maintained at 37° C. in a 5% CO2 humidified atmosphere for the duration of the treatment. Dispensing of compounds and other automatic liquid handling steps were performed with a Beckman FX multi-channel system equipped with Hudson Crane robotic systems.
(§2) The following mouse monoclonal antibodies were used for indirect immunofluorescence: 2B1 (anti-SMN), 2E17 (anti-Gemin2), 12H12 (anti-Gemin3), 10G11 (anti-Gemin5), 6E2 (anti-Gemin7), 10E10 (anti-PABP), 6BG10 (anti-FXR1), Y12 (anti-Sm) and 9H10 (anti-hnRNP A1). An affinity-purified rabbit polyclonal antibody was used to detect Gemin6.
(§3) Indirect immunofluorescence on HeLa PV cells was performed as follows: HeLa cells, plated on glass coverslips, were briefly washed with PBS, fixed in 2% formaldehyde/PBS for 20 minutes at room temperature, permeabilized in 0.5% Triton X-100/PBS for 5 min at room temperature. Cells were blocked in 3% bovine serum albumin for 1 hour at room temperature. Double-label immunofluorescence experiments were performed by separate sequential incubations of each primary antibody, diluted in PBS containing 3% bovine serum albumin, followed by the specific secondary coupled to fluorescein isothiocyanate or TXRD. All incubations were at room temperature for 1 hour. Indirect epifluorescence microscopy was performed with a Nikon Eclipse E800 microscope. Digital images were collected with a Cook Sensicam high performance camera and processed with the IP laboratory software. Processing of samples for immunofluorescence microscopy on cells cultured in 384-well plates was automated and performed with the aid of microplate washers (ELX405, Bio-Tek) in a similar manner to that previously used for individual samples on glass slides. The cells were also stained with DAPI to allow definition of the nucleus in each cell. Digital images were acquired with an automated microscopy and analysis system (IN Cell Analyzer 1000, GE Healthcare). Images were analyzed using automated algorithms with parameters set to calculate mean pixel intensity in each nucleus (defined by DAPI staining and acquired in a separate channel), cytoplasm, and total cell, as well as the relevant calculated ratios of these values.
Based on the results obtained in Example 1, a library of ˜5,000 biologically active small molecules was screened on HeLa cells in 384-well plates. Each well was incubated with a different compound (at 10 μM) and the cells were processed for indirect immunofluorescence. Digital images were collected from six fields in each well and analyzed using imaging algorithms for multiple parameters including relative nuclear and cytoplasmic intensities, and number, size and signal intensity of Gems. DAPI-stained images were collected in a separate channel to define the boundary of each nucleus. Images of individual fields in wells were flagged by the software as showing a significant change in SMN sub-cellular localization. These individual wells were examined directly, and active compounds were re-tested for verification (FIG. 2).

HeLa cells [1] = experiment: Sub-cellular localization of Gemins by immunostaining; format: cell-based
Experimental: as §1, with “systems. […]” for “systems.”
Indirect immunofluorescence on HeLa PV cells was performed as follows: HeLa cells, plated on glass coverslips, were briefly washed with PBS, fixed in 2% formaldehyde/PBS for 20 minutes at room temperature, permeabilized in 0.5% Triton X-100/PBS for 5 min at room temperature. […] Images were analyzed using automated algorithms with parameters set to calculate mean pixel intensity in each nucleus (defined by DAPI staining and acquired in a separate channel), cytoplasm, and total cell, as well as the relevant calculated ratios of these values. […]

HeLa cells [2] = experiment: Localization of other nuclear and cytoplasmic proteins (hnRNP A1, PABP, FXR1, snRNPs) by immunostaining; format: cell-based; settings: 6 hrs of 10 μM CHX (FIG. 3c)
Experimental: as §2
Indirect immunofluorescence on HeLa PV cells was performed as follows: HeLa cells, plated on glass coverslips, were briefly washed with PBS, fixed in 2% formaldehyde/PBS for 20 minutes at room temperature, permeabilized in 0.5% Triton X-100/PBS for 5 min at room temperature. Cells were blocked in 3% bovine serum albumin for 1 hour at room temperature. Double-label immunofluorescence experiments were performed by separate sequential incubations of each primary antibody, diluted in PBS containing 3% bovine serum albumin, followed by the specific secondary coupled to fluorescein isothiocyanate or TXRD. All incubations were at room temperature for 1 hour. Indirect epifluorescence microscopy was performed with a Nikon Eclipse E800 microscope. […] Images were analyzed using automated algorithms with parameters set to calculate mean pixel intensity in each nucleus (defined by DAPI staining and acquired in a separate channel), cytoplasm, and total cell, as well as the relevant calculated ratios of these values.

[3] = tested on: Hela cells with reduced SMN by RNAi; experiment: SMN localization in HeLa cells with reduced SMN by RNAi (shRNA targeting SMN); format: cell-based; settings: vs cells expressing non-targeting shRNA; 10 μM CHX 6 hours (FIG. 7)
Experimental: as §3, with “The cells were also stained with DAPI to allow definition of the nucleus in each cell. Digital images were acquired with an automated microscopy and analysis system (IN Cell Analyzer 1000, GE Healthcare).” left out

HeLa cells [4] = experiment: Cell viability / toxicity of treated cells; settings: overnight treatment with 10 μM CHX

Molecule: CCOC(=O)CN1C(=O)CC(C[C@@H](O)[C@@H]2C[C@@H](C)C[C@H](C)C2=O)CC1=O [cycloheximide-N-ethylethanoate]
- redistribution of SMN from the cytoplasm to the nucleus (nuclear accumulation of SMN) (HeLa PV cells): did not show any effect

Molecule: C[C@@H]1C[C@@H]([C@H](O)CC2CC(=O)NC(=O)C2)C(=O)[C@@H](C)C1 [cycloheximide]
- relation of nuclear accumulation of SMN to inhibition of protein synthesis (HeLa PV cells): proportional to the extent of inhibition of protein synthesis
- concentration dependence of SMN redistribution from the cytoplasm to the nucleus (HeLa PV cells; 0.1-40 μM (FIG. 3a, b)): concentration-dependent
- treatment time after which the effect on SMN redistribution was evident (HeLa PV cells; HeLa PV cells, 10 μM CHX (FIG. 3a)): 2 h
- redistribution of SMN from the cytoplasm to the nucleus (nuclear accumulation of SMN) (HeLa PV cells): most striking accumulation of SMN in the nucleus
- SMN remaining in the cytoplasm (HeLa PV cells; after 8 or more hours of treatment): little SMN detected in the cytoplasm
- reversibility of SMN nuclear accumulation (HeLa PV cells; cells washed and placed in fresh medium devoid of cycloheximide): reversible
- SMN localization after overnight treatment (HeLa PV cells; overnight treatment with 10 μM CHX): all of the SMN was localized to the nucleus
- nuclear accumulation of SMN complex components (Gemins) (HeLa cells [1]; 6 hours 10 μM CHX (FIG. 4)): causes most of the components of the SMN complex to accumulate in the nucleus
- localization of hnRNP A1, PABP, FXR1 and snRNPs (HeLa cells [2]): not significantly affected
- SMN nuclear accumulation in cells with reduced SMN [3]: showed a similar effect
- cell viability (HeLa cells [4]): no reduction in cell viability

Molecule: CC[C@H]1CN2CCc3cc(OC)c(OC)cc3[C@@H]2C[C@@H]1C[C@H]1NCCc2cc(OC)c(OC)cc21 [emetine]
- SMN localization (FIG. 6b) (HeLa PV cells; 10 μM): nuclear accumulation
- redistribution of SMN from the cytoplasm to the nucleus (nuclear accumulation of SMN) (HeLa PV cells): showed the same effect as cycloheximide

Molecule: COc1ccc(C[C@H](N)C(=O)N[C@H]2[C@@H](O)[C@H](n3cnc4c(N(C)C)ncnc43)O[C@@H]2CO)cc1 [puromycin]
- SMN localization (FIG. 6b) (HeLa PV cells; 10 μM): nuclear accumulation
- redistribution of SMN from the cytoplasm to the nucleus (nuclear accumulation of SMN) (HeLa PV cells): showed the same effect as cycloheximide

Molecule: O=C(CCCCCN1C(=O)c2cccc3cccc(c23)C1=O)NO [scriptaid]
- nuclear translocation of SMN at longer times (HeLa PV cells): caused the same effect as protein synthesis inhibitors

Molecule: C/C=C(/C)C(=O)O[C@H]1C(C)=C2[C@H]([C@@H]1OC(=O)CCCCCCC)[C@@](C)(OC(C)=O)C[C@H](OC(=O)CCC)[C@@]1(O)[C@H]2OC(=O)[C@@]1(C)O [thapsigargin]
- SMN localization (FIG. 6b) (HeLa PV cells; 10 μM): nuclear accumulation
- completeness of SMN nuclear accumulation compared with CHX (HeLa PV cells): not as complete as that seen after treatment with high levels of CHX
- redistribution of SMN from the cytoplasm to the nucleus (nuclear accumulation of SMN) (HeLa PV cells): caused SMN to accumulate in the nucleus

Molecule: CC(/C=C/C(=O)NO)=C\[C@@H](C)C(=O)c1ccc(N(C)C)cc1 [trichostatin A]
- nuclear translocation of SMN at longer times (HeLa PV cells): caused the same effect as protein synthesis inhibitors

Molecule: CCCC(CCC)C(=O)O [valproic acid]
- concentration dependence of nuclear localization of SMN (HeLa PV cells; 2-10 mM VPA (FIG. 5b)): clear concentration dependence effect
- nuclear translocation of SMN at longer times (HeLa PV cells): caused the same effect as protein synthesis inhibitors
- localization of Gemin3 and Gemin5 (HeLa cells [1]; 24 hour treatment, 10 mM VPA (FIG. 5c)): remain predominantly cytoplasmic

Molecule: tunicamycin
- SMN localization (FIG. 6b) (HeLa PV cells; 10 μg/ml): nuclear accumulation
- completeness of SMN nuclear accumulation compared with CHX (HeLa PV cells): not as complete as that seen after treatment with high levels of CHX
- redistribution of SMN from the cytoplasm to the nucleus (nuclear accumulation of SMN) (HeLa PV cells): caused SMN to accumulate in the nucleus
